Results reported in ChEMBL document CHEMBL1770049, “Synthesis of novel mast cell-stabilising and anti-allergic 1,2,3,4-tetrahydro-1-naphthalenols and related compounds” (Eur J Med Chem, 2011).
Activity calls are given as the source filed them. The calls are words filed in the database; no cut-off is given here.

Tests used:
[1] = Antiallergic activity in rat Peritoneal mast cell assessed as inhibition of compound 48/80-induced histamine release; type: functional, cell-based
Rattus norvegicus = test: Antiallergic activity in sensitized rat assessed as inhibition of ovalbumin-induced passive cutaneous anaphylaxis at 3 mg/kg, iv after 30 mins relative to control; type: functional; conditions: 0.5 h
Mus musculus = test: Antiinflammatory activity in Laca mouse assessed as inhibition of arachidonic acid induced ear oedema at 300 ug/ear; type: functional, organism-based
[2] = Lipophilicity, log P of the compound; type: physicochemical; conditions: octanol/water
[3] = Antiallergic activity in rat Peritoneal mast cell assessed as inhibition of Con A-induced histamine release; type: functional, cell-based
[4] = Antiallergic activity in rat Peritoneal mast cell assessed as inhibition of ionophore A23187-induced histamine release; type: functional, cell-based
[5] = Antiallergic activity in rat Peritoneal mast cell assessed as inhibition of compound 48/80-induced histamine release at 20 uM; type: functional

Q: Which IC50 [1] does the source give for OC1c2ccccc2CCC1(/C=C/c1ccccc1)Cc1ccccc1 (stereo not given) here?
A: 55.3 µM

Q: What about the inhibition in vivo at 3 mg/kg (Rattus norvegicus) of the same compound?
A: 44%

Q: And the Activity (Mus musculus)?
A: inactive

Q: What about the logP [2] of the same compound?
A: 6.58

Q: With O=C1c2ccccc2CCC1C1=Cc2ccccc2CC1 (stereo not given) as the compound, how does the IC50 [1] read?
A: 8 µM

Q: Which IC50 [1] does the source give for CC(Cc1ccccc1)(C1=Cc2ccccc2CC1)C(O)c1ccccc1 (stereo not given) here?
A: 3.3 µM

Q: What about the Activity (Mus musculus) of the same compound?
A: inactive

Q: What does the source list for OC1c2ccccc2CCC1(Cc1ccccc1)C1=Cc2ccccc2C1 (stereo not given)?
A: IC50 [1]: 4.1 µM; inhibition in vivo at 3 mg/kg (Rattus norvegicus): -5%; Activity (Mus musculus): Active; IC50 [3]: 0.75 µM; IC50 [4]: 10 µM; logP [2]: 6.3

Q: What does the source list for CC(Cc1ccccc1)(C1=Cc2ccccc2C1)C(O)c1ccccc1 (stereo not given)?
A: Activity (Mus musculus): inactive; inhibition at 20 µM [5]: 82%

Q: With Cc1ccc(CC2(/C=C/c3ccccc3)CCc3ccccc3C2O)cc1 (stereo not given) as the compound, how does the IC50 [1] read?
A: 9.4 µM

Q: Which IC50 [1] does the source give for CC(/C=C/c1ccccc1)(Cc1ccccc1)C(O)c1ccccc1 (stereo not given) here?
A: 70.9 µM

Q: What does the source list for O=C(O)c1cc(=O)c2c(OCC(O)COc3cccc4oc(C(=O)O)cc(=O)c34)cccc2o1 [CROMOLYN SODIUM]?
A: inhibition in vivo at 3 mg/kg (Rattus norvegicus): 87%; inhibition at 20 µM [5]: 10%

Q: For OC1c2ccccc2CC1(Cc1ccccc1)C1=Cc2ccccc2CC1 (stereo not given), which IC50 [1] is on record?
A: 7.7 µM

Q: And the inhibition in vivo at 3 mg/kg (Rattus norvegicus)?
A: 2%

Q: What about the Activity (Mus musculus) of the same compound?
A: inactive

Q: What about the IC50 [3] of the same compound?
A: 3.6 µM

Q: What about the IC50 [4] of the same compound?
A: 4.7 µM

Q: What about the logP [2] of the same compound?
A: 6.3
